# From patent publication US20090227607A1, “DEAZAPURINES USEFUL AS INHIBITORS OF JANUS KINASES” (priority 2006, published 2009)
# pKi: −log10 of the molar value.
# Tests used:
# [1] = biological target: JAK-2 enzyme (Homo sapiens, UniProt O60674); assay: JAK2 Inhibition Assay; format: biochemical; settings: 15 μM poly(Glu)4Tyr, 12 μM ATP, 25° C.
# Experimental: (§1) Compounds were screened for their ability to inhibit JAK3 using the assay shown below. Reactions were carried out in a kinase buffer containing 100 mM HEPES (pH 7.4), 1 mM DTT, 10 mM MgCl2, 25 mM NaCl, and 0.01% BSA. Substrate concentrations in the assay were 5 μM ATP (200 uCi/μmole ATP) and 1 μM poly(Glu)4Tyr. Reactions were carried out at 25° C. and 1 nM JAK3.
# (§2) To each well of a 96 well polycarbonate plate was added 1.5 μl of a candidate JAK3 inhibitor along with 50 μl of kinase buffer containing 2 μM poly(Glu)4Tyr and […]. This was then mixed and […] of kinase buffer containing 2 nM JAK3 enzyme was added to start the reaction. After 20 minutes at room temperature (25° C.), the reaction was stopped with 50 μl of 20% trichloroacetic acid (TCA) that also contained 0.4 mM ATP. The entire contents of each well were then transferred to a 96 well glass fiber filter plate using a TomTek Cell Harvester. After washing, 60 μl of scintillation fluid was added and ^33P incorporation detected on a Perkin Elmer TopCount.
# The assays were as described above in Example 36 except that JAK-2 enzyme was used, the final poly(Glu)4Tyr concentration was 15 μM, and final ATP concentration was 12 μM.
# (§3) Tables 5 and 6 depict enzyme inhibition data (Ki) for certain exemplary compounds. Compound numbers in Tables 5 and 6 correspond to those compounds depicted in Tables 1 and 2, respectively.
# [2] = biological target: T1, JAK3 (Homo sapiens, UniProt P52333); assay: JAK3 Inhibition Assay; format: biochemical; settings: 1 μM poly(Glu)4Tyr, 5 μM ATP, 1 nM JAK3, 25° C.; read-out: JAK3 enzyme inhibition data (Ki)
# T1 sequence (P52333 1-1124): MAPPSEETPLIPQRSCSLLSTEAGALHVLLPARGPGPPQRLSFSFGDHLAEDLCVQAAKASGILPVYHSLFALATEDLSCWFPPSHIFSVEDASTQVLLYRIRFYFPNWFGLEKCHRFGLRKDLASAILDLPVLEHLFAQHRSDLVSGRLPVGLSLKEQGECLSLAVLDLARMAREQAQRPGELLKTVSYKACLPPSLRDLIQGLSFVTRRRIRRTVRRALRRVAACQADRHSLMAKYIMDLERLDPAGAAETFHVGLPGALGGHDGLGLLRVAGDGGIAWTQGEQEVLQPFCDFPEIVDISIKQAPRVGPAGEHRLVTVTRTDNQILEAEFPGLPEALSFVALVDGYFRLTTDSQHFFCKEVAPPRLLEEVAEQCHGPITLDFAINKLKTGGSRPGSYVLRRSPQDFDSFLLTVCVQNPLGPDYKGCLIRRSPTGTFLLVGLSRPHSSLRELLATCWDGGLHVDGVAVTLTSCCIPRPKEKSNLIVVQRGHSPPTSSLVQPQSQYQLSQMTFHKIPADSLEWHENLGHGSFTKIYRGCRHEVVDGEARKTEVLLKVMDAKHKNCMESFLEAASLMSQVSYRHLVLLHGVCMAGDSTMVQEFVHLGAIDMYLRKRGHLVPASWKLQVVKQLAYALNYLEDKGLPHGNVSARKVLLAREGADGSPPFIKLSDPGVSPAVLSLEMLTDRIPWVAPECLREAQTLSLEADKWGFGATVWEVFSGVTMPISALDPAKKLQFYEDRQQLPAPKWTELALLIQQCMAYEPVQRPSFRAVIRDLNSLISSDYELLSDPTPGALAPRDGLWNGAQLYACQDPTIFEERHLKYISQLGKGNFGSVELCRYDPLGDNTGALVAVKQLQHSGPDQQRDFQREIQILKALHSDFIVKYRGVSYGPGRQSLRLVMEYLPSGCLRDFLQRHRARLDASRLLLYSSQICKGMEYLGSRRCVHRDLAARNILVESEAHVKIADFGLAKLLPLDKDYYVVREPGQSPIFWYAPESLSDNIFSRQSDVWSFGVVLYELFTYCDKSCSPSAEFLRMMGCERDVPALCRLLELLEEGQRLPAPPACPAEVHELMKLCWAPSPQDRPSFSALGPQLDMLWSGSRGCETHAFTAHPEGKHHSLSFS
# Experimental: as §1, §2, §3
# JAK-2 enzyme, sequence (O60674 whole entry, species assumed): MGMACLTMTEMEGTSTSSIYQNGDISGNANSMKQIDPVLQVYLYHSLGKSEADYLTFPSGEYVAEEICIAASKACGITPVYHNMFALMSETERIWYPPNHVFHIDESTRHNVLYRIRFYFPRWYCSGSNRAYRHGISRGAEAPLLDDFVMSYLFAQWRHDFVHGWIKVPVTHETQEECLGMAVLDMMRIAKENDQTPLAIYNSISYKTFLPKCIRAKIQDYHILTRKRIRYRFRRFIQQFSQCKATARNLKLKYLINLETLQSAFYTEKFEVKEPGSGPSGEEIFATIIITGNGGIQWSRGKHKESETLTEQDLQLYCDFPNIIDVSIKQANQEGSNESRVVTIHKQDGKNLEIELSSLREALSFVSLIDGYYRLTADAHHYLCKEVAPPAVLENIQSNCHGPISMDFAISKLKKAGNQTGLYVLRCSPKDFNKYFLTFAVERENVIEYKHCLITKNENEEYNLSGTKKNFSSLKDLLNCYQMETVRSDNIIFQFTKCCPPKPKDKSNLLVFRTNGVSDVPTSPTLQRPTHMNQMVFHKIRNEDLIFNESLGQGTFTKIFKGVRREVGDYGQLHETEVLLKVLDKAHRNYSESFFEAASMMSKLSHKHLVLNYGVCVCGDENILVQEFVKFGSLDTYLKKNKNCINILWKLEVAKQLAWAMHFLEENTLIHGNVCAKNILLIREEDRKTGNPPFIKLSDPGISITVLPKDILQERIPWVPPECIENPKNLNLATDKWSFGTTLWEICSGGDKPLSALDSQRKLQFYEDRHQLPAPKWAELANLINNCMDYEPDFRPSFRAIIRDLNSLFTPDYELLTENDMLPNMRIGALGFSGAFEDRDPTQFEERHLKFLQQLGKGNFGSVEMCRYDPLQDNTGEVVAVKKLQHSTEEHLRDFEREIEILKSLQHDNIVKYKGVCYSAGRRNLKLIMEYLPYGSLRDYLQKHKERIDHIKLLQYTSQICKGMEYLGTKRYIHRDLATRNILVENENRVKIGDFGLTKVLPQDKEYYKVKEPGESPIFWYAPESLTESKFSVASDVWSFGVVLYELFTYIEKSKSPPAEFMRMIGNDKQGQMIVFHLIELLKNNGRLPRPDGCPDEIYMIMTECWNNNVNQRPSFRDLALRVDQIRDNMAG
SMILES,pKi [1],pKi [2]
C=CCN(CC=C)C(=O)c1cc(-c2ncnc3[nH]ccc23)c[nH]1 [Compound 17],> 7.00,> 7.00
O=C(CCC1CCCC1)Nc1nc(-c2ncnc3[nH]ccc23)cs1 [Compound 67],> 7.00,> 7.00
N#CCN(Cc1ccccc1)C(=O)c1ccc(-c2ncnc3[nH]ccc23)o1 [Compound 124],> 7.00,6.30 to 7.00
CC1CC[C@@H](C)N1C(=O)c1coc(-c2ncnc3[nH]ccc23)c1 (stereo partly drawn) [Compound 197],> 7.00,5.30 to 6.30
CC(C)(C)OC(=O)N1CCCC(C(=O)Nc2nc(-c3ncnc4[nH]ccc34)cs2)C1 (stereo not drawn) [Compound 177],6.30 to 7.00,6.30 to 7.00
N#CC1CCCN1C(=O)c1cc(-c2ncnc3[nH]ccc23)c[nH]1 (stereo not drawn) [Compound 52],> 7.00,6.30 to 7.00
C=CCN(CC=C)C(=O)c1ccc(-c2ncnc3[nH]ccc23)o1 [Compound 217],> 7.00,> 7.00
O=C(c1cc(-c2ncnc3[nH]ccc23)co1)N(CC1CCC1)CC(F)(F)F [Compound 251],6.30 to 7.00,6.30 to 7.00
C[C@@H](O)CNC(=O)c1cc(-c2ncnc3[nH]ccc23)c[nH]1 [Compound 133],> 7.00,6.30 to 7.00
C#CCNC(=O)c1cc(-c2ncnc3[nH]ccc23)c[nH]1 [Compound 14],> 7.00,6.30 to 7.00
O=C(c1ccc(-c2ncnc3[nH]ccc23)o1)N(CC1CCCC1)CC(F)(F)F [Compound 191],> 7.00,> 7.00
CN(Cc1cccnc1)C(=O)c1cc(-c2ncnc3[nH]ccc23)c[nH]1 [Compound 49],> 7.00,6.30 to 7.00
O=C(c1cc(-c2ncnc3[nH]ccc23)c[nH]1)N1CCCC(O)C1 (stereo not drawn) [Compound 51],6.30 to 7.00,5.30 to 6.30
O=C(O)CCC(=O)Nc1nc(-c2ncnc3[nH]ccc23)cs1 [Compound 146],6.30 to 7.00,6.30 to 7.00
C=CCN(C(=O)c1cc(-c2ncnc3[nH]ccc23)c[nH]1)C(C)c1ccccc1 (stereo not drawn) [Compound 116],> 7.00,> 7.00
CCN(CCC#N)C(=O)c1cc(-c2ncnc3[nH]ccc23)cn1C [Compound 237],> 7.00,> 7.00
CC(C(=O)OC(C)(C)C)n1cc(-c2ncnc3[nH]ccc23)cn1 (stereo not drawn) [Compound 95],6.30 to 7.00,–
CC(C(=O)NCC(F)(F)F)n1cc(-c2ncnc3[nH]ccc23)cn1 (stereo not drawn) [Compound 91],> 7.00,> 7.00
COC(C)C(=O)Nc1nc(-c2ncnc3[nH]ccc23)cs1 (stereo not drawn) [Compound 97],> 7.00,6.30 to 7.00
"O=C(c1cc(-c2ncnc3[nH]ccc23)co1)N(CCC(F)(F)F)CC1CC1 [Compound 229, N-(cyclopropylmethyl)-4-(7H-pyrrolo[2,3-d]pyrimidin-4-yl)-N-(3,3,3-trifluoropropyl)furan-2-carboxamide]",> 7.00,6.30 to 7.00
CC[C@@H]1CC[C@@H](CC)N1C(=O)c1cc(-c2ncnc3[nH]ccc23)c[nH]1 [Compound 185],> 7.00,6.30 to 7.00
O=C(CCC1CC1)Nc1nc(-c2ncnc3[nH]ccc23)cs1 [Compound 96],> 7.00,> 7.00
CC(C(=O)NCc1ccccc1)n1cc(-c2ncnc3[nH]ccc23)cn1 (stereo not drawn) [Compound 86],6.30 to 7.00,6.30 to 7.00
O=C1CCC(C(=O)Nc2nc(-c3ncnc4[nH]ccc34)cs2)CC1 [Compound 65],> 7.00,> 7.00
O=C(CC1CC1)Nc1nc(-c2ncnc3[nH]ccc23)cs1 [Compound 70],> 7.00,> 7.00
Cn1cc(-c2ncnc3[nH]ccc23)cc1C(=O)NCC(F)(F)F [Compound 235],> 7.00,> 7.00

SMILES,pKi [1],pKi [2]
CC1CC1C(=O)Nc1nc(-c2ncnc3[nH]ccc23)cs1 (stereo not drawn) [Compound 58],> 7.00,> 7.00
CC(C)(C)CC(=O)Nc1nc(-c2ncnc3[nH]ccc23)cs1 [Compound 66],> 7.00,> 7.00
CC1CCC(C)N1C(=O)c1cc(-c2ncnc3[nH]ccc23)c[nH]1 (stereo not drawn) [Compound 54],> 7.00,> 7.00
CCCN(CC)C(=O)c1cc(-c2ncnc3[nH]cc(C)c23)c[nH]1 [Compound 206],> 7.00,6.30 to 7.00
CC(C)(C)OC(=O)N1CCC(C(=O)Nc2nc(-c3ncnc4[nH]ccc34)cs2)CC1 [Compound 178],6.30 to 7.00,6.30 to 7.00
CCCCN(CC)C(=O)c1cc(-c2ncnc3[nH]ccc23)cn1C [Compound 232],> 7.00,6.30 to 7.00
c1nc(-c2cn[nH]c2)c2cc[nH]c2n1 [Compound 5],6.30 to 7.00,6.30 to 7.00
CC[C@@H]1CC[C@@H](CC)N1C(=O)c1cc(-c2ncnc3[nH]ccc23)co1 [Compound 246],> 7.00,6.30 to 7.00
CC(C(=O)NCC1CCCO1)n1cc(-c2ncnc3[nH]ccc23)cn1 (stereo not drawn) [Compound 76],5.30 to 6.30,5.30 to 6.30
CC#CCN(CC(C)C)C(=O)c1cc(-c2ncnc3[nH]ccc23)c[nH]1 [Compound 189],> 7.00,> 7.00
Cc1c[nH]c2ncnc(-c3cnn(CC(C)C)c3)c12 [Compound 162],> 7.00,6.30 to 7.00
CCCN(CC1CC1)C(=O)c1cc(-c2ncnc3[nH]ccc23)c[nH]1 [Compound 20],> 7.00,> 7.00
CCCCN(CC)C(=O)c1cc(-c2ncnc3[nH]cc(C)c23)c[nH]1 [Compound 201],> 7.00,6.30 to 7.00
CC(C)N(CCC(F)(F)F)C(=O)c1cc(-c2ncnc3[nH]ccc23)co1 [Compound 247],6.30 to 7.00,5.30 to 6.30
N#CCNC(=O)c1cc(-c2ncnc3[nH]ccc23)c[nH]1 [Compound 15],> 7.00,> 7.00
COc1ccc(C(=O)Nc2nc(-c3ncnc4[nH]ccc34)cs2)cc1 [Compound 175],> 7.00,6.30 to 7.00
N#CCN(Cc1cccc(Cl)c1)C(=O)c1cc(-c2ncnc3[nH]ccc23)c[nH]1 [Compound 113],> 7.00,> 7.00
O=C(c1cc(-c2ncnc3[nH]ccc23)c[nH]1)N(CCC(F)(F)F)C1CCCC1 [Compound 188],> 7.00,6.30 to 7.00
CC(C)CC(=O)N(C)c1nc(-c2ncnc3[nH]ccc23)cs1 [Compound 105],> 7.00,> 7.00
CCCN(CC(F)(F)F)C(=O)c1ccc(-c2ncnc3[nH]ccc23)o1 [Compound 121],> 7.00,> 7.00
CCCn1cc(-c2ncnc3[nH]cc(C)c23)cn1 [Compound 161],6.30 to 7.00,6.30 to 7.00
C=CCN(CC=C)C(=O)c1cc(-c2ncnc3[nH]ccc23)co1 [Compound 245],> 7.00,6.30 to 7.00
NC(=O)C1CCCN1C(=O)c1ccc(-c2ncnc3[nH]ccc23)o1 (stereo not drawn) [Compound 221],5.30 to 6.30,5.30 to 6.30
CCN(CCO)C(=O)c1cc(-c2ncnc3[nH]ccc23)c[nH]1 [Compound 40],> 7.00,6.30 to 7.00
O=C(Nc1nc(-c2ncnc3[nH]ccc23)cs1)C(O)C(F)(F)F (stereo not drawn) [Compound 100],> 7.00,> 7.00
O=C(N[C@H](CO)c1cccc(Cl)c1)c1cc(-c2ncnc3[nH]ccc23)c[nH]1 [Compound 1],–,> 7.00
